The values below are quoted from earlier work in patent US10925856B2, “Methods and compositions involving bucindolol for the treatment of atrial fibrillation” (priority 2018, dated 2021).

Read-outs that look alike come from different tables or passages of the source.

This data set relates to patients with HF and/or AF. To be noted: persistent AF recently converted to SR, cited from earlier work.

For `CC(C)NCC(O)COc1ccc(COCCOC(C)C)cc1` (stereo not shown) [bisoprolol], the AF recurrence rate was 46% (Katritsis et al) and 42% (Plewan et al).

With `COc1ccccc1OCCNCC(O)COc1cccc2[nH]c3ccccc3c12` (stereo not shown) [carvedilol], the AF recurrence rate (Katritsis et al) is given as 32%.

`CC(C)NCC(O)c1ccc(NS(C)(=O)=O)cc1` (stereo not shown) [sotalol]: the AF recurrence rate (Plewan et al) is on record as 41%.
